pIC50: −log10 of the molar value.

Sequence of mitochondrial RNA-polymerase (POLRMT) (Q8BKF1 42-1207): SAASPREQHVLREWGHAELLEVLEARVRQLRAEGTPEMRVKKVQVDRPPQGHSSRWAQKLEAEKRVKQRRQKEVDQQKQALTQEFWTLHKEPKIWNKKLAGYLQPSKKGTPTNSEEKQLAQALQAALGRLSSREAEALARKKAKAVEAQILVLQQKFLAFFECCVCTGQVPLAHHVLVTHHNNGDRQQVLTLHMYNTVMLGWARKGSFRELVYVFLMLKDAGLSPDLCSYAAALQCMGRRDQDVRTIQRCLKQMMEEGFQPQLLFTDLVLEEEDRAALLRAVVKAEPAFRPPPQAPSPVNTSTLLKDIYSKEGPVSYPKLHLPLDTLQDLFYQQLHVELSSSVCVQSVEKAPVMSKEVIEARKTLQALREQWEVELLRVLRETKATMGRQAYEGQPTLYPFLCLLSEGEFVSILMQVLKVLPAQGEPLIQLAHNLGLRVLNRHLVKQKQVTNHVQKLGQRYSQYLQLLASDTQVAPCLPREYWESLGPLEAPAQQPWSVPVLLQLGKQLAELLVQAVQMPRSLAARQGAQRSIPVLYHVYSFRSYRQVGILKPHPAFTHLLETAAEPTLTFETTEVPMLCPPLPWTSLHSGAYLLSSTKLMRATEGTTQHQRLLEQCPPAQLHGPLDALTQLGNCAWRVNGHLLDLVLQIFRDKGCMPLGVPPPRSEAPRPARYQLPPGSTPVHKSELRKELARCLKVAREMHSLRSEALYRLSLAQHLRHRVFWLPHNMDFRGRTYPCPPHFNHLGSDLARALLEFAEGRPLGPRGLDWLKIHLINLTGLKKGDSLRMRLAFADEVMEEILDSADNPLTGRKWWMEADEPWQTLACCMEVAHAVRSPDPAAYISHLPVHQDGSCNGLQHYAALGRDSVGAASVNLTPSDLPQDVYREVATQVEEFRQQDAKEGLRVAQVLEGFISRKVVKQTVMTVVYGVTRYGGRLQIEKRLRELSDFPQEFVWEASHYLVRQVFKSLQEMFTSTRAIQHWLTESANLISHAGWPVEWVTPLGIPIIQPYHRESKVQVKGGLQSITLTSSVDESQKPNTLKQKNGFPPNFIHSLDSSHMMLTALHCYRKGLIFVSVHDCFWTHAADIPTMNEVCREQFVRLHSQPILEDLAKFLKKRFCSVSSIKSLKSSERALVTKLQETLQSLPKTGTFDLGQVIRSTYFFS

The test concerns the target mitochondrial RNA-polymerase (POLRMT) (Mus musculus, UniProt Q8BKF1). As to the kind of experiment: Homogeneous TR-FRET assay for mitochondrial transcription activity. Format: biochemical. As to conditions: homogeneous TR-FRET assay according to Example 4; activity class. The text has this: The TR-FRET assay was basically conducted as described in WO2016/193,231A1, especially as described in example 1 (hereby incorporated by reference). With respect to the background of the mitochondrial transcription it is referred to Falkenberg et al. (2002) and Posse et al. (Posse et al., 2015). The method monitors the activity of mitochondrial RNA-polymerase via detection of the formation of its product, a 407 bp long RNA sequence. Detection of the product is facilitated by hybridization of two DNA-oligonucleotide probes to specific and adjacent sequences within the RNA product sequence. Upon annealing of the probes, two fluorophores that are coupled directly to an acceptor nucleotide probe (ATT0647, 5′) or introduced via a coupled streptavidin interacting with a biotinylated donor nucleotide probe on the other side (Europium cryptate, 3′) are brought into sufficient proximity to serve as a fluorescence-donor-acceptor pair as generally described in Walters and Namchuk (2003). Thus, a FRET signal at 665 nm is generated upon excitation at 340 nm.
Briefly, the protocol described here was applied for screening and activity determination in a low-volume 384-well microtiter plate with non-binding surface. For high-throughput application in the 1536-well microtiter plate format, volumes of the reagent mixes were adjusted, maintaining the volumetric ratio. Proteins POLRMT (NM_172551.3), TFAM (NM_009360.4) and TFB2 M (NM_008249.4) were diluted from their stocks to working concentrations of 150 nM, 1.8 μM and 330 nM respectively, in a dilution buffer containing 100 mM Tris-HCl pH 8.0, 200 mM NaCl, 10% (v/v) glycerole, 2 mM glutathione (GSH), 0.5 mM EDTA and 0.1 mg/mL BSA. Protein dilutions and template DNA, comprising a pUC18 plasmid encoding the mitochondrial light strand promoter, restriction linearized proximal to the promoter 3′-end (pUC-LSP), were mixed at the twofold final assay-concentration in a reaction buffer, containing 10 mM Tris-HCl pH 7.5, 10 mM MgCl2, 40 mM NaCl, 2 mM GSH, 0.01% (w/v) Tween-20 and 0.1 mg/mL BSA.
5 μL of this mix were dispensed, depending on the chosen microtiter plate format, using multi-channel pipettes or a Multidrop® dispenser (Thermo Fisher Scientific, Waltham Mass.) into the wells of a microtiter plate and incubated at room temperature (RT) for 10 min. Chemical compounds under scrutiny in the assay were applied using contact-free acoustic droplet-dispensing (Echo520® Labcyte Inc., Sunnyvale Calif.) from 10 mM compound stocks in 100% DMSO, to a final concentration of 10 μM or in serial dilution series of the required concentration range. Equal amounts of DMSO without any compound were added to positive control samples, followed by an incubation step at RT for 10 min.
The enzymatic reaction was started by the addition of 5 μL of a mix of […] in reaction buffer to a final concentration of 500 μM each. No nucleotide mix was added to negative control samples. The content of the wells was mixed using a VarioTeleshaker™ (Thermo Fisher Scientific, Waltham Mass.) at 1,500 rpm for 45 sec after which the microtiter plate was centrifuged at 500×g for 1 min. The samples were incubated for 2 h at RT with humidity control to avoid evaporation. The detection reagents were prepared in a buffer that was composed, such that the enzymatic reaction was terminated due to chelating of Mg-ions and increased ionic strength, containing 50 mM Tris-HCl pH 7.5, 700 mM NaCl, 20 mM EDTA, and 0.01% (w/v) Tween-20. Importantly Eu-cryptate-coupled streptavidin had to be pre-incubated with a 100-fold molar excess of a random sequence oligonucleotide for 10 min at RT in the dark to block unspecific binding of single stranded RNA to the protein. Subsequently, the blocked streptavidin(—Eu) was mixed with the DNA-probes on ice and kept away from light until use. […]
`COC(=O)[C@H]1CCN(C(=O)[C@@H](C)Oc2ccc3c(-c4ccc(F)cc4Cl)cc(=O)oc3c2)C1` [Compound 157, methyl (3S)-1-[(2R)-2-[4-(2-chloro-4-fluoro-phenyl)-2-oxo-chromen-7-yl]oxypropanoyl]pyrrolidine-3-carboxylate]: the pIC50 (commonly the IC50 on a negative log10 scale, so that one unit is a factor of ten) is 7.00 to 7.70.

Turning to `CC(Oc1ccc2c(-c3ccccc3Cl)cc(=O)oc2c1)C(=O)N1CCCC1` (centres unmarked) [Compound 13, 4-(2-chlorophenyl)-7-(1-methyl-2-oxo-2-pyrrolidin-1-yl-ethoxy)chromen-2-one], the pIC50 is > 7.70.

`CC(C)NC(=O)C(C)Oc1ccc2c(-c3ccc(F)cc3Cl)cc(=O)oc2c1` (centres unmarked) [Compound 65, 2-[4-(2-chloro-4-fluoro-phenyl)-2-oxo-chromen-7-yl]oxy-N-isopropyl-propanamide] had a pIC50 of 7.00 to 7.70.

`C[C@@H](Oc1ccc2c(-c3ccc(F)cc3Cl)cc(=O)oc2c1)C(=O)N1CCC(C(=O)O)CC1` [Compound 131, 1-[(2R)-2-[4-(2-chloro-4-fluoro-phenyl)-2-oxo-chromen-7-yl]oxypropanoyl]piperidine-4-carboxylic acid] had a pIC50 of 7.00 to 7.70.

Turning to `C[C@@H](Oc1ccc2c(-c3ccccc3Cl)cc(=O)oc2c1)C(=O)N(C)C` [Compound 45, (2R)-2-[4-(2-chlorophenyl)-2-oxo-chromen-7-yl]oxy-N,N-dimethyl-propanamide], the pIC50 is > 7.70.

`COC(=O)C[C@@H]1CCN(C(=O)[C@@H](C)Oc2ccc3c(-c4ccc(F)cc4Cl)cc(=O)oc3c2)C1` [Compound 144, methyl 2-[(3S)-1-[(2R)-2-[4-(2-chloro-4-fluoro-phenyl)-2-oxo-chromen-7-yl]oxypropanoyl]pyrrolidin-3-yl]acetate] gave a pIC50 of 7.00 to 7.70.

For the compound `CC(Oc1ccc2c(-c3ccccc3Cl)cc(=O)oc2c1)C(=O)Nc1ccc(CCO)cc1` (centres unmarked) [Compound 35, 2-[4-(2-chlorophenyl)-2-oxo-chromen-7-yl]oxy-N-[4-(2-hydroxyethyl)phenyl]propanamide], the pIC50 is > 7.70.

Regarding `COC(=O)C1CCCN(C(=O)C(C)Oc2ccc3c(-c4ccccc4C)cc(=O)oc3c2)C1` (centres unmarked) [Compound 6, methyl 1-[2-[4-(o-tolyl)-2-oxo-chromen-7-yl]oxypropanoyl]piperidine-3-carboxylate], the pIC50 is > 7.70.

As to `C[C@@H](Oc1ccc2c(-c3ccccc3Cl)cc(=O)oc2c1)C(=O)N1CCCCC1` [Compound 34, 4-(2-chlorophenyl)-7-[(1R)-1-methyl-2-oxo-2-(1-piperidyl)ethoxy]chromen-2-one], the pIC50 was > 7.70.

For the compound `Cc1ccccc1-c1cc(=O)oc2cc(OC(C)C(=O)N3CCC[C@@H](C(=O)O)C3)ccc12` (stereo partly drawn) [Compound 53, (3R)-1-[2-[4-(o-tolyl)-2-oxo-chromen-7-yl]oxypropanoyl]piperidine-3-carboxylic acid], the pIC50 is > 7.70.

`CCOC(=O)C(C)Oc1ccc2c(-c3cccc(F)c3Cl)cc(=O)oc2c1` (centres unmarked) [Compound 57, ethyl 2-[4-(2-chloro-3-fluoro-phenyl)-2-oxo-chromen-7-yl]oxypropanoate] gave a pIC50 of 7.00 to 7.70.

`COC(=O)C1CCN(C(=O)[C@@H](C)Oc2ccc3c(-c4ccc(F)cc4Cl)cc(=O)oc3c2)CC1` [Compound 129, methyl 1-[(2R)-2-[4-(2-chloro-4-fluoro-phenyl)-2-oxo-chromen-7-yl]oxypropanoyl]piperidine-4-carboxylate]: the pIC50 is > 7.70.

For the compound `CCOC(=O)[C@H]1CCCN(C(=O)C(C)Oc2ccc3c(-c4ccccc4Cl)cc(=O)oc3c2)C1` (stereo partly drawn) [Compound 16, ethyl (3S)-1-[2-[4-(2-chlorophenyl)-2-oxo-chromen-7-yl]oxypropanoyl]piperidine-3-carboxylate], the pIC50 is > 7.70.

As to `Cc1ccccc1-c1cc(=O)oc2cc(OC(C)C(=O)N3CCC(CC(=O)O)CC3)ccc12` (centres unmarked) [Compound 60, 2-[1-[2-[4-(o-tolyl)-2-oxo-chromen-7-yl]oxypropanoyl]-4-piperidyl]acetic acid], the pIC50 is 7.00 to 7.70.

Consider `CC(Oc1ccc2c(-c3cccc(F)c3Cl)cc(=O)oc2c1)C(=O)N1CCC[C@H](C(=O)O)C1` (stereo partly drawn) [Compound 50, (3S)-1-[2-[4-(2-chloro-3-fluoro-phenyl)-2-oxo-chromen-7-yl]oxypropanoyl]piperidine-3-carboxylic acid], for which the pIC50 was > 7.70.

The compound `CC(Oc1ccc2c(-c3ccc(F)cc3Cl)cc(=O)oc2c1)C(=O)O` (centres unmarked) [Compound 99, 2-((4-(2-chloro-4-fluorophenyl)-2-oxo-2H-chromen-7-yl)oxy)propanoic acid] showed a pIC50 of 6.00 to 7.00.

As for `CC(Oc1ccc2c(-c3ccccc3Cl)cc(=O)oc2c1)C(=O)N1CCC[C@@H](C(=O)N(C)C)C1` (stereo partly drawn) [Compound 67, (3R)-1-[2-[4-(2-chlorophenyl)-2-oxo-chromen-7-yl]oxypropanoyl]-N,N-dimethyl-piperidine-3-carboxamide], the pIC50 is 7.00 to 7.70.

The compound `CCOC(=O)CC1CCCN(C(=O)C(C)Oc2ccc3c(-c4ccccc4C)cc(=O)oc3c2)C1` (centres unmarked) [Compound 87, ethyl 2-[1-[2-[4-(o-tolyl)-2-oxo-chromen-7-yl]oxypropanoyl]-3-piperidyl]acetate] had a pIC50 of 7.00 to 7.70.

Take `Cc1cc(F)ccc1-c1cc(=O)oc2cc(O[C@H](C)C(=O)N3CCC[C@H](C(=O)O)C3)ccc12` [Compound 158, (3S)-1-[(2R)-2-[4-(4-fluoro-2-methyl-phenyl)-2-oxo-chromen-7-yl]oxypropanoyl]piperidine-3-carboxylic acid]: the pIC50 is > 7.70.

As for `CNS(=O)(=O)C1CCCN(C(=O)C(C)Oc2ccc3c(-c4ccccc4Cl)cc(=O)oc3c2)C1` (centres unmarked) [Compound 20, 1-[2-[4-(2-chlorophenyl)-2-oxo-chromen-7-yl]oxypropanoyl]-N-methyl-piperidine-3-sulfonamide], the pIC50 is > 7.70.

`COC(=O)[C@@H]1CN(C(=O)[C@@H](C)Oc2ccc3c(-c4ccc(F)cc4Cl)cc(=O)oc3c2)CCN1` [Compound 135, methyl (2S)-4-[(2R)-2-[4-(2-chloro-4-fluoro-phenyl)-2-oxo-chromen-7-yl]oxypropanoyl]piperazine-2-carboxylate] gave a pIC50 of 6.00 to 7.00.

As to `CCNC(=O)C(C)Oc1ccc2c(-c3cccc(F)c3Cl)cc(=O)oc2c1` (centres unmarked) [Compound 68, 2-[4-(2-chloro-3-fluoro-phenyl)-2-oxo-chromen-7-yl]oxy-N-ethyl-propanamide], the pIC50 was 7.00 to 7.70.

The compound `C[C@@H](Oc1ccc2c(-c3ccc(F)cc3Cl)cc(=O)oc2c1)C(=O)N1CCN[C@@H](C(=O)O)C1` [Compound 150, (2R)-4-[(2R)-2-[4-(2-chloro-4-fluoro-phenyl)-2-oxo-chromen-7-yl]oxypropanoyl]piperazine-2-carboxylic acid] showed a pIC50 of 7.00 to 7.70.

As for `CC(Oc1ccc2c(-c3ccc(F)cc3Cl)cc(=O)oc2c1)C(=O)NC1CC1` (centres unmarked) [Compound 90, 2-[4-(2-chloro-4-fluoro-phenyl)-2-oxo-chromen-7-yl]oxy-N-cyclopropyl-propanamide], the pIC50 is 7.00 to 7.70.

The compound `C[C@@H](Oc1ccc2c(-c3ccccc3C#N)cc(=O)oc2c1)C(=O)N1CCC[C@H](C(=O)O)C1` [Compound 162, (3S)-1-[(2R)-2-[4-(2-cyanophenyl)-2-oxo-chromen-7-yl]oxypropanoyl]piperidine-3-carboxylic acid] gave a pIC50 of 7.00 to 7.70.

The compound `CC(Oc1ccc2c(-c3cccc(F)c3Cl)cc(=O)oc2c1)C(=O)O` (centres unmarked) [Compound 94, 2-[4-(2-chloro-3-fluoro-phenyl)-2-oxo-chromen-7-yl]oxypropanoic acid] had a pIC50 of 7.00 to 7.70.

(Values after patent US11111238B2, “Coumarin derivatives, processes for their preparation and uses thereof for the treatment of cancer” (Lead Discovery Center GmbH, priority 2017, dated 2021).)
